Laboratory results: patent US20160296499A1, “Spiroindoline Antiparasitic Derivatives” (ZOETIS SERVICES LLC, priority 2013, published 2016)
Where two headings read alike, the source gives them in different places.

Experiments:
Haemonchus contortus L3 = test: Haemonchus contortus, Larvae Stage 3 (HcL3) In Vitro Assay; settings: Haemonchus contortus
[1] = tested on: Dirofilaria immitis microfilariae; test: Dirofilaria immitis, Microfilariae (DiMF) In Vitro Assay; settings: Dirofilaria immitis
[2] = biological target: T1, bovine vesicular acetylcholine transporter (VAChT) (Bos taurus, UniProt E1BK36); test: Radioligand Binding Assay; settings: Bovine binding Ki, CHO-K1 membranes with recombinant bovine VAChT, [3H]Compound X6 0.3 nM
T1 sequence (E1BK36 1-524): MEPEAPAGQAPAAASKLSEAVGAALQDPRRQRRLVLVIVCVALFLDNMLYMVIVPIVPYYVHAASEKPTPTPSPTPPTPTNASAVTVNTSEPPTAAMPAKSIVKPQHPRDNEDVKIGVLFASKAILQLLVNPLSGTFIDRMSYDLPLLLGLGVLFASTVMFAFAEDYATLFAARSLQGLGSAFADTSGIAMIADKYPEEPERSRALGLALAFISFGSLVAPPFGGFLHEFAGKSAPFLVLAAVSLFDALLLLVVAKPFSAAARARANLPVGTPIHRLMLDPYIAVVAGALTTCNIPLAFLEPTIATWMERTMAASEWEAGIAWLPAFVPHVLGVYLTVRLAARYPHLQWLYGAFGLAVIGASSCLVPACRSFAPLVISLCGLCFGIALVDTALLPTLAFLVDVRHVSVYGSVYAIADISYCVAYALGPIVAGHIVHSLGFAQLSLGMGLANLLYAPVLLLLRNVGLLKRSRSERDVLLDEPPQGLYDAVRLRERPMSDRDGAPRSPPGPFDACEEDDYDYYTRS
Procedure: To measure binding affinity, CHO-K1 cells recombinantly expressing the bovine VAChT was generated as a stable cell line and subsequently used to produce membrane preparations.
Radioligand binding assays were conducted in disposable polypropylene 96-well plates. VAChT competition assays were initiated by the addition of bovine recombinant membrane homogenate (50 μg/well) in assay buffer (50 mM Tris-HCl, 120 mM NaCl, 5 mM KCl, 1 mM MgCl, and 2 mM CaCl, pH 7.4) containing [^3H]Compound X6 (0.3 nM) with or without competing ligand. The assay was allowed to equilibrate for 120 minutes at room temperature, before being filtered onto GF/C unifilter plates pre-coated in 0.3% polyethylenimine (Perkin Elmer Life and Analytical Sciences, Boston, Mass.) with a Filtermate 96 harvester (PerkinElmer Life and Analytical Sciences). Filters were washed in ice-cold 50 mM Tris-HCl, pH 7.4 buffer and then counted for radioactivity in a TopCount microplate scintillation counter after addition of 50 μL Microscint 20 (PerkinElmer). Non-specific binding was measured in the presence of 10 μM Compound X6. Apparent dissociation constants (Ki values) from the competition experiments were calculated using an iterative nonlinear regression curve-fitting program (GraphPAD Prism 6.0 Software, San Diego, Calif.) and are reported in Table 2.

[3] = 96 h, read-out: HcL3 MEC, Minimal Effective Concentration whereby worm motility is inhibited by approximately 70%, 37° C., tested 0.001-100 μM
[4] = 72 h, read-out: Di MF, MEC, decrease in microfilariae motility by visual assessment, curve starting at 100 μM
[5] = 96 hours, 37° C., read-out: HcL3 MEC

| Compound | minimal effective concentration (Haemonchus contortus L3; [3]) | minimal effective concentration [1, 4] | Ki [2] | minimal effective concentration (Haemonchus contortus L3; [5]) | minimal effective concentration ([1]; 72 hours, read-out: Di MF) |
| --- | --- | --- | --- | --- | --- |
| Cc1nc2c3c(ccc2s1)N(C(=O)NCc1ccnc(Cl)c1)CC31CCN(C/C=C/c2ccc(C(F)(F)F)cn2)CC1 [Example 45, (E)-N-((2-chloropyridin-4-yl)methyl)-2′-methyl-1-(3-(5-(trifluoromethyl)pyridin-2-yl)allyl)spiro[piperidine-4,8′-thiazolo[4,5-e]indole]-6′(7′H)-carboxamide] | > 100 µM | 33 µM | 3220 nM | – | – |
| COc1ccc(/C=C/CN2CCC3(CC2)CN(C(=O)NCc2ccnc(Cl)c2)c2ccc4sc(C)nc4c23)cc1 [Example 46, (E)-N-((2-chloropyridin-4-yl)methyl)-1-(3-(4-methoxyphenyl)allyl)-2′-methylspiro[piperidine-4,8′-thiazolo[4,5-e]indole]-6′(7′H)-carboxamide] | > 100 µM | 10 µM | 883 nM | – | – |
| O=C(NCc1ccnc(Br)c1)N1CC2(CCN(C/C=C/c3ccc(Cl)c(Cl)c3)CC2)c2c1ccc1scnc21 [Example 47, (E)-N-((2-bromopyridin-4-yl)methyl)-1-(3-(3,4-dichlorophenyl)allyl)spiro[piperidine-4,8′-thiazolo[4,5-e]indole]-6′(7′H)-carboxamide] | 100 µM | 10 µM | 919 nM | – | – |
| Cn1ncc2c3c(ccc21)N(C(=O)NCc1ccnc(Cl)c1)CC31CCN(C/C=C/c2ccc(Cl)cc2)CC1 [Example 51, (E)-1-(3-(4-chlorophenyl)allyl)-N-((2-chloropyridin-4-yl)methyl)-3′-methyl-3′H-spiro[piperidine-4,8′-pyrrolo[3,2-e]indazole]-6′(7′H)-carboxamide] | – | – | 518 nM | > 100 µM | 33.3 µM |
| Cn1ncc2c3c(ccc21)N(C(=O)NCc1ccnc(Cl)c1)CC31CCN(C/C=C/c2ccc(F)cc2)CC1 [Example 52, (E)-N-((2-chloropyridin-4-yl)methyl)-1-(3-(4-fluorophenyl)allyl)-3′-methyl-3′H-spiro[piperidine-4,8′-pyrrolo[3,2-e]indazole]-6′(7′H)-carboxamide] | > 100 µM | 10 µM | 778 nM | – | – |
| Cn1ncc2c3c(ccc21)N(C(=O)NCc1ccnc(Cl)c1)CC31CCN(C/C=C/c2ccc(C(F)(F)F)cn2)CC1 [Example 53, (E)-N-((2-chloropyridin-4-yl)methyl)-3′-methyl-1-(3-(5-(trifluoromethyl)pyridin-2-yl)allyl)-3′H-spiro[piperidine-4,8′-pyrrolo[3,2-e]indazole]-6′(7′H)-carboxamide] | > 100 µM | 33 µM | 1930 nM | – | – |
| COc1ccc(/C=C/CN2CCC3(CC2)CN(C(=O)NCc2ccnc(Cl)c2)c2ccc4c(cnn4C)c23)cc1 [Example 54, (E)-N-((2-chloropyridin-4-yl)methyl)-1-(3-(4-methoxyphenyl)allyl)-3′-methyl-3′H-spiro[piperidine-4,8′-pyrrolo[3,2-e]indazole]-6′(7′H)-carboxamide] | > 100 µM | 33 µM | 1400 nM | – | – |
| O=C(NCc1ccnc(Cl)c1)N1CC2(CCN(C/C=C/c3ccc(Cl)c(Cl)c3)CC2)c2cc(OC(F)(F)F)ccc21 [Example 55, (E)-N-((2-chloropyridin-4-yl)methyl)-1′-(3-(3,4-dichlorophenyl)allyl)-5-(trifluoromethoxy)spiro[indoline-3,4′-piperidine]-1-carboxamide] | 3.3 µM | 5.7 µM | 876 nM | – | – |
| O=C(NCc1ccnc(Cl)c1)N1CC2(CCN(C/C=C/c3ccc(Cl)c(Cl)c3)CC2)c2c1cccc2C(F)(F)F [Example 56, (E)-N-((2-chloropyridin-4-yl)methyl)-1′-(3-(3,4-dichlorophenyl)allyl)-4-(trifluoromethyl)spiro[indoline-3,4′-piperidine]-1-carboxamide] | – | – | 432 nM | 4.5 µM | 9.1 µM |
| O=C(NCc1cnc(Cl)s1)N1CC2(CCN(C/C=C/c3ccc(Cl)cc3)CC2)c2c(OC(F)(F)F)ccc(Cl)c21 [Example 57, (E)-7-chloro-1′-(3-(4-chlorophenyl)allyl)-N-((2-chlorothiazol-5-yl)methyl)-4-(trifluoromethoxy)spiro[indoline-3,4′-piperidine]-1-carboxamide] | 70 µM | 4 µM | 954 nM | – | – |
| O=C(NCc1ccnc(Cl)c1)N1CC2(CCN(C/C=C/c3ccc(F)cc3)CC2)c2c(OC(F)(F)F)ccc(Cl)c21 [Example 58, (E)-7-chloro-N-((2-chloropyridin-4-yl)methyl)-1′-(3-(4-fluorophenyl)allyl)-4-(trifluoromethoxy)spiro[indoline-3,4′-piperidine]-1-carboxamide] | 100 µM | 10 µM | 1360 nM | – | – |
| O=C(NCc1ccnc(Cl)c1)N1CC2(CCN(C/C=C/c3ccc(Cl)cc3)CC2)c2c(Cl)cc(Cl)cc21 [Example 59, (E)-4,6-dichloro-1′-(3-(4-chlorophenyl)allyl)-N-((2-chloropyridin-4-yl)methyl)spiro[indoline-3,4′-piperidine]-1-carboxamide] | – | – | 284 nM | 100 µM | 10 µM |
| O=C(NCc1ccnc(F)c1)N1CC2(CCN(C/C=C/c3ccc(Cl)cc3)CC2)c2c(Cl)cc(Cl)cc21 [Example 60, (E)-4,6-dichloro-1′-(3-(4-chlorophenyl)allyl)-N-((2-fluoropyridin-4-yl)methyl)spiro[indoline-3,4′-piperidine]-1-carboxamide] | 100 µM | 10 µM | 986 nM | – | – |
| O=C(NCc1ccnc(F)c1)N1CC2(CCN(C/C=C/c3ccc(Cl)cc3)CC2)c2c1cc(Cl)c(F)c2Cl [Example 61, (E)-4,6-dichloro-1′-(3-(4-chlorophenyl)allyl)-5-fluoro-N-((2-fluoropyridin-4-yl)methyl)spiro[indoline-3,4′-piperidine]-1-carboxamide] | 100 µM | 10 µM | 671 nM | – | – |
| O=C(NCc1ccnc(F)c1)N1CC2(CCN(C/C=C/c3ccc(Cl)cc3)CC2)c2c1ccc(Cl)c2Cl [Example 62, (E)-4,5-dichloro-1′-(3-(4-chlorophenyl)allyl)-N-((2-fluoropyridin-4-yl)methyl)spiro[indoline-3,4′-piperidine]-1-carboxamide] | 3.3 µM | 10 µM | 329 nM | – | – |
| O=C(NCc1ccnc(F)c1)N1CC2(CCN(C/C=C/c3ccc(Cl)cc3)CC2)c2c1ccc(F)c2Cl [Example 63, (E)-4-chloro-1′-(3-(4-chlorophenyl)allyl)-5-fluoro-N-((2-fluoropyridin-4-yl)methyl)spiro[indoline-3,4′-piperidine]-1-carboxamide] | 8.2 µM | 5.7 µM | 182 nM | – | – |
| O=C(NCc1cnc(Cl)s1)N1CC2(CCN(C/C=C/c3ccc(Cl)cc3)CC2)c2c1ccc(Cl)c2Cl [Example 64, (E)-4,5-dichloro-1′-(3-(4-chlorophenyl)allyl)-N-((2-chlorothiazol-5-yl)methyl)spiro[indoline-3,4′-piperidine]-1-carboxamide] | – | – | 116 nM | 10 µM | 5.7 µM |
| COc1cc2c(cn1)C1(CCN(C/C=C/c3ccc(Cl)c(Cl)c3)CC1)CN2C(=O)NCc1ccnc(Cl)c1 [Example 65, (E)-N-((2-chloropyridin-4-yl)methyl)-1-(3-(3,4-dichlorophenyl)allyl)-6′-methoxyspiro[piperidine-4,3′-pyrrolo[3,2-c]pyridine]-1′(2′H)-carboxamide] | 3.3 µM | 1.8 µM | 49.4 nM | – | – |
| N#Cc1cc2c(cn1)N(C(=O)NCc1ccnc(Cl)c1)CC21CCN(C/C=C/c2ccc(Cl)c(Cl)c2)CC1 [Example 66, (E)-N-((2-chloropyridin-4-yl)methyl)-5′-cyano-1-(3-(3,4-dichlorophenyl)allyl)spiro[piperidine-4,3′-pyrrolo[2,3-c]pyridine]-1′(2′H)-carboxamide] | 1.8 µM | 10 µM | 24.1 nM | – | – |
| N#Cc1ccc2c(n1)C1(CCN(C/C=C/c3ccc(Cl)c(Cl)c3)CC1)CN2C(=O)NCc1ccnc(Cl)c1 [Example 67, (E)-N-((2-chloropyridin-4-yl)methyl)-5′-cyano-1-(3-(3,4-dichlorophenyl)allyl)spiro[piperidine-4,3′-pyrrolo[3,2-b]pyridine]-1′(2′H)-carboxamide] | 10 µM | 5.7 µM | 33.5 nM | – | – |
